{
  "source": "ChEMBL document CHEMBL1201862",
  "about": "“PubChem BioAssay data set” (2004)",
  "key": {"[1]": {"test": "luciferase reporter signal suppression in cells – H4 neuroglioma cells, luminescence, dose response (AID 1990)", "type": "functional, cell-based"}, "[2]": {"test": "Luminescence Cell-Based Dose Response HTS to Identify Inhibitors of 5'UTR Stem-Loop Driven Prion Protein mRNA Translation in H4 Neuroglioblastoma Cells. [Related pubchem assays: 1827 (Project Summary), 1813 (Primary HTS)]", "type": "functional"}, "[3]": {"test": "alpha-synuclein stem-loop luciferase translation blockers – H4 neuroglioma cells, luminescence, confirmation (AID 1988)", "type": "functional, cell-based"}, "[4]": {"tested_on": "Streptococcus sp. 'group A'", "test": "Streptococcus pyogenes SK(-)GAS viability under kanamycin – luminescence, BacTiterGlo, confirmation, counter-screen for streptokinase expression inhibitor project, dose response (AID 1900)", "type": "functional, organism-based"}, "[5]": {"molecular_target": "T1, Heat shock factor protein 1 (Mus musculus, UniProt P38532)", "T1 sequence (P38532 whole entry)": "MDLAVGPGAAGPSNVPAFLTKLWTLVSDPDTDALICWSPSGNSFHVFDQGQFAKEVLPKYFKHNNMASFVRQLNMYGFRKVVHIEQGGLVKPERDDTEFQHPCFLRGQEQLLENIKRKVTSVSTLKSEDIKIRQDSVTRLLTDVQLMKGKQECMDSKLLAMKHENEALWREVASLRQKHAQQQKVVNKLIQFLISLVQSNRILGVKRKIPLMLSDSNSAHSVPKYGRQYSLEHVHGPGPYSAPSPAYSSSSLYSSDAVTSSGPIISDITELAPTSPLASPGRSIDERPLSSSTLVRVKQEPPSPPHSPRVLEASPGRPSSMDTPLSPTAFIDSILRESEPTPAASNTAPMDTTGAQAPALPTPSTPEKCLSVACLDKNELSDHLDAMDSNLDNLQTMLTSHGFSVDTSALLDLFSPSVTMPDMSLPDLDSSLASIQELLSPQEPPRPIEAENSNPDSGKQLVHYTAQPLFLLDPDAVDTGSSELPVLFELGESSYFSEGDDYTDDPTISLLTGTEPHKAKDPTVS", "test": "decrease of HSF1-responsive luciferase luminescence – cell-based, NIH3T3, dose retest, confirmation (AID 2382);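 also: NIH3T3 fibroblasts with HSF1-driven luciferase reporter stressed by proteasome inhibitor MG132; luminescence from HSF1-driven luciferase expression after 8 hours of MG132 stress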", "type": "functional"}, "Streptokinase A": {"molecular_target": "T2, Streptokinase A (Streptococcus pyogenes serotype M1, UniProt P10520)", "T2 sequence (P10520 whole entry)": "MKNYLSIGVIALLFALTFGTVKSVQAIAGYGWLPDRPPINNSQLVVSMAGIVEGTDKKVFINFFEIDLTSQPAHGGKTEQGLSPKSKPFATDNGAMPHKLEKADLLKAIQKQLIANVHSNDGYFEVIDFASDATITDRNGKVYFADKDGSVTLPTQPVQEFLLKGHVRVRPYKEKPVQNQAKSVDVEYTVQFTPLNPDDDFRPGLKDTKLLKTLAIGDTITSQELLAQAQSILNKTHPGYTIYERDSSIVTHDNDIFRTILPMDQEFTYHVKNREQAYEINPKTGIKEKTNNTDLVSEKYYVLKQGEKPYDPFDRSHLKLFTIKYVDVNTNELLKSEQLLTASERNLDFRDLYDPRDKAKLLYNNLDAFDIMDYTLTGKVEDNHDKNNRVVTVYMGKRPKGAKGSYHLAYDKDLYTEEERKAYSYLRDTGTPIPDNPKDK", "test": "viability-normalized secreted streptokinase activity reduction – plasminogen activation absorbance, OD405, dose response (AID 1914)", "type": "functional, Streptococcus pyogenes M1 GAS"}, "Streptococcus": {"tested_on": "Streptococcus", "test": "GAS UMAA2166 growth inhibition – luminescence, BacTiterGlo, counter-screen for streptokinase expression inhibitor project, dose response (AID 1915);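 also: potency for reduction of bacterial viability or growth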", "type": "functional, organism-based"}, "[6]": {"test": "P. falciparum Dd2 growth inhibitors, dose response, SYBR Green, cherry-picked samples (AID 1159567)", "type": "functional, cell-based"}, "[7]": {"test": "viability of uninfected HEp-2 cells – cell-based, HTS, cytotoxicity control for RSV inhibitor project, dose response (AID 2410)", "type": "functional", "settings": "human respiratory syncytial virus"}, "[8]": {"molecular_target": "T3, Calpain-2 catalytic subunit (Sus scrofa, UniProt P43367)", "T3 sequence (P43367 whole entry)": "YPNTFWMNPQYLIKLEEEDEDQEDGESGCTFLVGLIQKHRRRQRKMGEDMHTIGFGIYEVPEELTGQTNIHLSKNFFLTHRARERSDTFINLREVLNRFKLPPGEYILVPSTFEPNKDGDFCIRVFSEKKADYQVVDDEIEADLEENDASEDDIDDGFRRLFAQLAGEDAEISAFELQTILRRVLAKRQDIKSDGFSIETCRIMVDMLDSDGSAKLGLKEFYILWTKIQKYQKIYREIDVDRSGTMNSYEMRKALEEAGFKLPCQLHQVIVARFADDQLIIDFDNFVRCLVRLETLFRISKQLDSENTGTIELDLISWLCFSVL", "test": "m-calpain protease blockers, concentration series – biochemical, fluorogenic peptide substrate, dose response (AID 1420)", "type": "functional"}, "[9]": {"test": "Trypanosoma cruzi growth suppression in host cells – NIH3T3 host cells, beta-gal luminescence, confirmation (AID 2044);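 also: intracellular parasites grown in NIH/3T3 mouse fibroblasts as host cells; luminescent beta-galactosidase reporter signal from transgenic T. cruzi replicating inside host cells; inhibitors lower the luminescence signal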", "type": "functional, cell-based"}, "[10]": {"test": "NIH3T3 cell viability loss – ATP luminescence, mouse fibroblasts, counter-screen, dose response (AID 2010);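 also: cells exposed to compound for about 90 hours before reading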", "type": "functional, cell-based"}, "INS1": {"tested_on": "INS1", "test": "INS-1E survival protection against cytokine death – cell-based, luminescence, retest, dose response (AID 449756);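 also: cell death triggered by IL-1 beta plus TNF-alpha plus IFN-gamma mixture; protective hits raise ATP signal compared with cytokine alone wells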", "type": "functional", "settings": "Rattus norvegicus"}},
  "note": "Calls of active or inactive are those of the source. Rule as the data show it, for most assays here: actives have a measured EC50 and inactives only a lower limit.",
  "data": [
    {"smiles": "NC(=O)c1ccc(NC(=O)COC(=O)C2(c3ccccc3F)CCCC2)cc1", "values": [
      {"measurement": "EC50", "setting": "[1]", "value": "> 120 µM (not active)"},
      {"measurement": "EC50", "setting": "[2]", "value": "> 120 µM (not active)"},
      {"measurement": "EC50", "setting": "[3]", "value": "17.5 µM (active)"}
    ]},
    {"smiles": "Nc1c(S(=O)(=O)c2cccs2)c2nc3ccccc3nc2n1Cc1ccccc1", "values": [
      {"measurement": "EC50", "setting": "[1]", "value": "20.7 µM (active)"},
      {"measurement": "EC50", "setting": "[2]", "value": "> 120 µM (not active)"},
      {"measurement": "EC50", "setting": "[3]", "value": "> 120 µM (not active)"}
    ]},
    {"smiles": "CC/N=C1\\S/C(=C\\c2ccc(-c3cccc(C(=O)O)c3)o2)C(=O)N1CC", "values": [
      {"measurement": "EC50", "setting": "[4]", "value": "3.4 µM (active)"},
      {"measurement": "EC50", "setting": "[5]", "value": "> 195 µM (not active)"},
      {"measurement": "EC50", "setting": "Streptokinase A", "value": "> 150 µM (not active)"},
      {"measurement": "EC50", "setting": "Streptococcus", "value": "10.7 µM (active)"}
    ]},
    {"smiles": "C[C@@H]1CN([C@@H](C)CO)C(=O)c2cccc(NC(=O)c3cnccn3)c2O[C@@H]1CN(C)Cc1ccc(C(F)(F)F)cc1", "values": [
      {"measurement": "AC50", "setting": "[6]", "value": "9.12 µM (active)"}
    ]},
    {"smiles": "CCC(=O)N1CC2(C1)CN(S(=O)(=O)c1ccccc1)[C@@H](CO)c1[nH]c3cc(OC)ccc3c12", "values": [
      {"measurement": "AC50", "setting": "[6]", "value": "5.43 µM (active)"}
    ]},
    {"smiles": "CCC(CC)C1=NN2C(=N)/C(=C\\c3c(C)[nH]c4ccccc34)C(=O)N=C2S1", "values": [
      {"measurement": "EC50", "setting": "[4]", "value": "5.71 µM (active)"},
      {"measurement": "CC50", "setting": "[7]", "value": "16.1 µM (active)"},
      {"measurement": "EC50", "setting": "Streptokinase A", "value": "18.9 µM (inconclusive)"},
      {"measurement": "EC50", "setting": "Streptococcus", "value": "53 µM (active)"}
    ]},
    {"smiles": "Fc1cccc(Cl)c1CSc1ccc(-c2cccnc2)nn1", "values": [
      {"measurement": "IC50", "setting": "[8]", "value": "29.7 µM (not active)"},
      {"measurement": "CC50", "setting": "[7]", "value": "> 50 µM (active)"}
    ]},
    {"smiles": "O=C(C1CC12CCCC2)N1CCC(CO)(Cc2ccccc2Cl)CC1", "note": "(stereo not given)", "values": [
      {"measurement": "EC50", "setting": "[1]", "value": "19 µM (active)"},
      {"measurement": "EC50", "setting": "[2]", "value": "120 µM (active)"},
      {"measurement": "EC50", "setting": "[3]", "value": "> 120 µM (not active)"}
    ]},
    {"smiles": "CC(C)(C)NC(=O)N1c2ccccc2Sc2ccccc21", "values": [
      {"measurement": "EC50", "setting": "[1]", "value": "15.3 µM (active)"},
      {"measurement": "EC50", "setting": "[2]", "value": "> 120 µM (not active)"},
      {"measurement": "EC50", "setting": "[3]", "value": "112 µM (active)"}
    ]},
    {"smiles": "COc1ccccc1N1CCN(Cc2c[nH]c3ccccc23)CC1", "values": [
      {"measurement": "EC50", "setting": "[9]", "value": "2.1 µM (active)"},
      {"measurement": "EC50", "setting": "[1]", "value": "> 120 µM (not active)"},
      {"measurement": "EC50", "setting": "[10]", "value": "> 60 µM (not active)"},
      {"measurement": "EC50", "setting": "[2]", "value": "25.3 µM (active)"},
      {"measurement": "EC50", "setting": "[3]", "value": "> 120 µM (not active)"}
    ]},
    {"smiles": "COC(=O)[C@H](CC(C)C)N(Cc1ccccc1)S(=O)(=O)N(Cc1ccccc1)[C@@H](CC(C)C)C(=O)OC", "values": [
      {"measurement": "AC50", "setting": "INS1", "value": "13.7 µM (active)"}
    ]},
    {"smiles": "CC(N=C(S)NC1CCCCC1)c1ccc(C(C)(C)C)cc1", "note": "(stereo not given)", "values": [
      {"measurement": "AC50", "setting": "INS1", "value": "6.14 µM (active)"}
    ]},
    {"smiles": "CCC(CO)Nc1ncnc2c1cnn2-c1ccc(OC)cc1", "note": "(stereo not given)", "values": [
      {"measurement": "EC50", "setting": "[4]", "value": "> 150 µM (not active)"},
      {"measurement": "EC50", "setting": "Streptokinase A", "value": "> 150 µM (not active)"},
      {"measurement": "EC50", "setting": "Streptococcus", "value": "> 150 µM (not active)"}
    ]},
    {"smiles": "O=C(c1cc(COc2c(F)cccc2F)on1)N1CCC(c2ccccc2Cl)C1", "note": "(stereo not given)", "values": [
      {"measurement": "IC50", "setting": "[8]", "value": "4.48 µM (not active)"}
    ]},
    {"smiles": "O=C1CCCc2c1[nH]c1ccc(Br)cc21", "values": [
      {"measurement": "EC50", "setting": "[1]", "value": "< 0.1 µM (active)"},
      {"measurement": "EC50", "setting": "[2]", "value": "86.4 µM (active)"},
      {"measurement": "EC50", "setting": "[3]", "value": "9.02 µM (active)"}
    ]},
    {"smiles": "Cc1ccc(C2CCN(C(S)=Nc3cccc(C)c3)C2)cc1", "note": "(stereo not given)", "values": [
      {"measurement": "IC50", "setting": "[8]", "value": "9.72 µM (not active)"}
    ]},
    {"smiles": "CO[C@@H]1CN(C)C(=O)c2ccc(NC(=O)c3cc(C)on3)cc2OC[C@@H](C)N(S(=O)(=O)c2cccc(C)c2)C[C@H]1C", "values": [
      {"measurement": "AC50", "setting": "[6]", "value": "4.07 µM (active)"}
    ]}
  ]
}
